The results in this text go back to ChEMBL document CHEMBL3217665, “Amino-derivatives of the sesquiterpene lactone class of natural products as prodrugs” (Medchemcomm, 2013).

By pIC50 is commonly meant the IC50 on a negative log10 scale, so that one unit is a factor of ten. The low end stands for a large IC50, the high end for a small IC50. Broadly, the Cmax is the maximum level reached in the sampled fluid or tissue. Broadly, the half-life is how long it takes for the measured level to halve. Low readings indicate fast loss, high ones slow loss. One may read the bioavailability as the share of a dose that reaches the circulation, judged against a reference dose that is usually intravenous. Broadly, the IC50 is the concentration needed to halve the response being measured.

Molecules are shown by their SMILES. pIC50: −log10 of the molar value. Values after ≈ are worked out from the molar mass of the structure shown.

Data set [1] can be described thus: Antiproliferative activity against human Hep2 cells. It counts as functional. The following applies: HEp-2, read-out: ED50 (the source's name).
A further data set concerns NCI-H520. As to the kind of experiment: Antiproliferative activity against human NCI-H520 cells. It counts as functional, cell-based.
For a further data set, the system named is A549. The experiment in a line: Antiproliferative activity against human A549 cells. The class given is functional, cell-based.
The subject of data set [2] is P388. As to the kind of experiment: Antiproliferative activity against mouse P388 cells. It counts as functional, cell-based.
A further data set concerns MCF7. As to the kind of experiment: Antiproliferative activity against human MCF7 cells. It counts as functional, cell-based.
Data set [3] in a line: Cmax in mouse at 40 mg/kg, po. The class given is ADME, organism-based. Also noted: dose 40 mg/kg, route oral. The conditions noted are these: in vivo.
Data set [4] is described as follows: Half life in dog at 100 mg/kg, po. The class given is ADME, organism-based, Canis lupus familiaris. The conditions noted are these: in vivo. Also noted: dose 100 mg/kg, route oral.
Data set [5] in a line: Cmax in dog at 100 mg/kg, po. The class given is ADME, organism-based, Canis lupus familiaris. Also noted: dose 100 mg/kg, route oral. The following applies: in vivo.
Data set [6] can be described thus: Half life in mouse at 100 mg/kg, po. Also noted: dose 100 mg/kg, route oral. The conditions noted are these: in vivo. The class given is ADME, organism-based.
Data set [7] can be described thus: Cmax in mouse at 100 mg/kg, po. The class given is ADME, organism-based. Also on record: dose 100 mg/kg, route oral. The conditions noted are these: in vivo.
Data set [8] is described as follows: Oral bioavailability in mouse at 100 mg/kg. It counts as ADME, organism-based. The conditions noted are these: in vivo.
The nature of data set [9]: Oral bioavailability in dog at 100 mg/kg. It counts as ADME, organism-based, Canis lupus familiaris. The following applies: in vivo.
Data set [10] deals with P388. As to the kind of experiment: Antitumor activity against mouse P388 cells allografted in DBA/2 mouse assessed as survival. It counts as functional.
For another data set, the species on record is Rattus norvegicus. The experiment in a line: Gastroprotective activity in rat assessed as inhibition of HCl/ethyl alcohol-induced lesions. The class given is functional.
Data set [11] in a line: Antiinflammatory activity in mouse macrophages assessed as LPS-induced nitric oxide production. The following applies: Macrophage. The class given is functional, cell-based.
The species named for another data set is Mus musculus. As to the kind of experiment: Gastroprotective activity in mouse assessed as inhibition of water-immersion-induced lesions. It counts as functional.

`C=C1C(=O)O[C@@H]2C[C@@H](C)[C@@H]3CCC(=O)[C@@]3(C)[C@@H](O)[C@H]12`: in data set [1], the EC50 was 3.83 µg/mL (≈ 14.5 µM).

For the molecule `C=C1CCC[C@]2(C)C[C@H]3OC(=O)[C@@H](CN(CC)CC)[C@H]3C[C@@H]12`, the pIC50 was 6.05 with NCI-H520, 6.10 in the data set with A549, 6.52 in the data set with P388 [2] and 6.10 in the data set with MCF7.

Consider `C/C1=C\CC[C@@]2(C)O[C@@H]2[C@H]2OC(=O)[C@@H](CN(C)C)[C@@H]2CC1`, for which the Cmax in data set [3] was found to be 0.2 µM; in data set [5] it was 61 µM; in [7] it was 25 µM. In addition, the half-life is 1.9 h in [4] and 0.63 h in data set [6]. The bioavailability in data set [8] and in [9] was 70% in each case.

Take `C[C@@H]1C[C@H]2OC(=O)C(CN(C)C)[C@H]2[C@H](O)[C@]2(C)C(=O)C=C[C@@H]12` (stereo partly specified): the Survival in the data set with P388 [10] turned out to be 13 days. Moreover, the EC50 in data set [1] came to 0.604 µg/mL (≈ 1.96 µM).

In the case of `C[C@@H]1C[C@H]2OC(=O)C(CN(C)C)[C@H]2[C@H](O)[C@]2(C)C(=O)CC[C@@H]12` (stereo partly specified), the EC50 in data set [1] was found to be 6.04 µg/mL (≈ 19.5 µM).

With `C/C1=C\[C@H]2OC(=O)[C@@H](CN3CCC[C@H]3C(=O)O)[C@@H]2CC/C(C)=C/CC1`, the results for the “inhibition (INH)” value in the data set filed under Rattus norvegicus and in the data set filed under Mus musculus were 59.8% and 57%, respectively. In data set [11], the IC50 came out at 2.8 µg/mL (≈ 8.06 µM).

Take `C=C1CC[C@H]2C(=C)CC[C@@H]3[C@H](OC(=O)[C@H]3CN3CCC[C@H]3C(=O)O)[C@@H]12`: the “inhibition (INH)” value is given as 87% in the data set listed under Rattus norvegicus and 19% in the data set filed under Mus musculus. For the same molecule, in data set [11], the IC50 turned out to be 2.8 µg/mL (≈ 8.11 µM).

As to `C=C1CC[C@H]2C(=C)CC[C@@H]3[C@H](OC(=O)[C@H]3CN[C@@H](CC(N)=O)C(=O)O)[C@@H]12`, the figures for the “inhibition (INH)” value in the data set listed under Rattus norvegicus and in the data set listed under Mus musculus were 68.1% and 4.7%, respectively. In addition, in data set [11], the IC50 was 16 µg/mL (≈ 44.1 µM).

`C=C1C(=O)O[C@@H]2/C=C(\C)CC/C=C(\C)CC[C@@H]12` [COSTUNOLIDE]: the “inhibition (INH)” value in the data set filed under Rattus norvegicus came to 93.2%; in the data set filed under Mus musculus, 14.3%. Further, the IC50 in [11] was determined as 1.2 µg/mL (≈ 5.17 µM).

On to `C=C1CC[C@H]2C(=C)CC[C@H]3C(=C)C(=O)O[C@@H]3[C@@H]12` [DEHYDROCOSTUSLACTONE], for which the “inhibition (INH)” value in the data set listed under Rattus norvegicus is given as 96.2%; in the data set listed under Mus musculus, 19%. Besides, the IC50 in data set [11] was found to be 1.2 µg/mL (≈ 5.21 µM).

For the molecule `C=C1C(=O)O[C@@H]2C[C@@H](C)[C@@H]3C=CC(=O)[C@@]3(C)[C@@H](O)[C@H]12` [HELENALIN], the Survival with P388 [10] was 13.4 days. Besides, the EC50 in data set [1] was 0.083 µg/mL (≈ 0.316 µM).

As to `C=C1C(=O)O[C@@H]2C[C@@]3(C)CCCC(=C)[C@@H]3C[C@H]12` [ISOALANTOLACTONE], the pIC50 is 6.05 in the data set with NCI-H520, 6.22 with A549, 6.40 in the data set with P388 [2] and 6.22 with MCF7.
